Test results as given in patent US20140275007A1, “OXAMAZIN ANTIBIOTICS” (priority 2013, published 2014).
Converted amounts (≈) assume the structure as drawn.

What was measured:
Assay type in all cases: cell-based, Escherichia coli
[1] = test system: E. coli strain ECM6713 (pUCP24::TEM-10); experiment: MIC, broth microdilution, isogenic E. coli panel, TEM-10 strain; conditions: for Ratio of MIC vs vector alone: strain ECM6713, pUCP24::TEM-10 vs ECM6704
Procedure: (§1) Potency and spectrum of compound 1 was determined using the panel of isogenic engineered strains, each containing a plasmid carrying a cloned gene expressing a β-lactamase enzyme. The strain that contained the empty vector was included to evaluate the impact of individual β-lactamases on microbiological activity of compound 1 vs comparator antibiotics. The host strain was wild-type strain of Escherichia coli, ECM5497. The vector plasmid was pUCP24. […] MIC was assessed using broth microdilution method as recommended by the NCCLS (National Committee for Clinical Laboratory Standards. Methods for Dilution Antimicrobial Susceptibility Tests for Bacteria that Grow Aerobically—4th Edition. Approved Standard NCCLS Document M7-A4, Vol. 17, No. 2, NCCLS, Wayne, Pa., January 1997). In this assay multiple dilutions of drugs are being tested for the ability to inhibit growth of the test bacterial strains. The MIC assay is performed in microtiter plates. Antibiotics are diluted two-fold in the x axis, each column containing a single concentration of antibiotic. The assay is performed in MHB with a final bacterial inoculum of 5×10^5 CFU/mL (from an early-log phase culture). Microtiter plates are incubated during 20 h at 35° C. and are read using a microtiterplate reader (Molecular Devices) at 650 nm as well as visual observation using a microtiter plate reading mirror.

[2] = test system: E. coli strain ECM6703 (pUCP24::NDM-1); experiment: MIC, broth microdilution, isogenic E. coli panel, NDM-1 strain; conditions: for Ratio of MIC vs vector alone: strain ECM6703, pUCP24::NDM-1 vs ECM6704
Procedure: as §1

[3] = test system: E. coli strain ECM6704 (pUCP24, vector); experiment: MIC, broth microdilution, isogenic E. coli panel, empty vector strain; conditions: for Ratio of MIC vs vector alone: strain ECM6704, pUCP24, vector (reference strain itself)
Procedure: as §1

[4] = test system: E. coli strain ECM6711 (pUCP24::VIM-1); experiment: MIC, broth microdilution, isogenic E. coli panel, VIM-1 strain; conditions: for Ratio of MIC vs vector alone: strain ECM6711, pUCP24::VIM-1 vs ECM6704
Procedure: as §1

[5] = test system: E. coli strain ECM6694 (pUCP24::CTX-M-15); experiment: MIC, broth microdilution, isogenic E. coli panel, CTX-M-15 strain; conditions: for Ratio of MIC vs vector alone: strain ECM6694, pUCP24::CTX-M-15 vs ECM6704
Procedure: as §1

[6] = test system: E. coli strain ECM6696 (pUCP24::NMC-A); experiment: MIC, broth microdilution, isogenic E. coli panel, NMC-A strain; conditions: for Ratio of MIC vs vector alone: strain ECM6696, pUCP24::NMC-A vs ECM6704
Procedure: as §1

[7] = test system: E. coli strain ECM6716 (pUCP24::OXA-48); experiment: MIC, broth microdilution, isogenic E. coli panel, OXA-48 strain; conditions: for Ratio of MIC vs vector alone: strain ECM6716, pUCP24::OXA-48 vs ECM6704
Procedure: as §1

[8] = test system: E. coli strain ECM6706 (pUCP24::SME-2); experiment: MIC, broth microdilution, isogenic E. coli panel, SME-2 strain; conditions: for Ratio of MIC vs vector alone: strain ECM6706, pUCP24::SME-2 vs ECM6704
Procedure: as §1

[9] = test system: E. coli strain ECM6715 (pUCP24::AmpC); experiment: MIC, broth microdilution, isogenic E. coli panel, AmpC strain; conditions: for Ratio of MIC vs vector alone: strain ECM6715, pUCP24::AmpC vs ECM6704
Procedure: as §1

[10] = test system: E. coli strain ECM6701 (pUCP24::KPC-2); experiment: microbe, parasite or virus in culture; conditions: for Ratio of MIC vs vector alone: strain ECM6701, pUCP24::KPC-2 vs ECM6704
Procedure: as §1

[11] = test system: E. coli strain ECM6718 (pUCP24::SHV-5); experiment: microbe, parasite or virus in culture; conditions: for Ratio of MIC vs vector alone: strain ECM6718, pUCP24::SHV-5 vs ECM6704
Procedure: as §1

[12] = test system: E. coli strains expressing individual β-lactamases; experiment: Impact of β-lactamases on microbiological activity, whole panel of isogenic engineered strains
Procedure: as §1
Table 2 contains MICs of compound 1 and comparator antibiotics for each test strain and Table 3 contains MIC ratios vs vector only control (strain ECM6704). β-Lactamases present in the test panel belonged to all four currently described classes of enzymes, A, B, C and D. These β-lactamases also represent the major groups of the most relevant enzymes.

[13] = strain ECM6713, pUCP24::TEM-10, class A, ESBL
[14] = strain ECM6703, pUCP24::NDM-1, class B
[15] = strain ECM6711, pUCP24::VIM-1, class B
[16] = strain ECM6694, pUCP24::CTX-M-15, class A, ESBL
[17] = strain ECM6696, pUCP24::NMC-A, class A, carbapenemase
[18] = strain ECM6701, pUCP24::KPC-2, class A, carbapenemase
[19] = strain ECM6718, pUCP24::SHV-5, class A, ESBL
[20] = strain ECM6706, pUCP24::SME-2, class A, carbapenemase
[21] = strain ECM6715, pUCP24::AmpC, class C

| SMILES | MIC ([1]; Escherichia coli) [µg/mL] | MIC ([2]; Escherichia coli) [µg/mL] | MIC ([3]; Escherichia coli, 20 h) [µg/mL] | MIC ([4]; Escherichia coli) [µg/mL] | MIC ([5]; Escherichia coli) [µg/mL] | MIC ([6]; Escherichia coli) [µg/mL] | MIC ([7]; Escherichia coli) [µg/mL] | MIC ([8]; Escherichia coli) [µg/mL] | MIC ([9]; Escherichia coli) [µg/mL] | Ratio of MIC vs vector alone [6] [µg/mL] | MIC ([10]; Escherichia coli) [µg/mL] | MIC ([11]; Escherichia coli) [µg/mL] | MIC [1, 13] [µg/mL] | MIC [2, 14] [µg/mL] | MIC [4, 15] [µg/mL] | MIC [5, 16] [µg/mL] | MIC [6, 17] [µg/mL] | MIC [10, 18] [µg/mL] | MIC [11, 19] [µg/mL] | MIC [8, 20] [µg/mL] | further results |
| --- | --- | --- | --- | --- | --- | --- | --- | --- | --- | --- | --- | --- | --- | --- | --- | --- | --- | --- | --- | --- | --- |
| C[C@H]1[C@H](NC(=O)/C(=N\OC(C)(C)C(=O)O)c2csc(N)n2)C(=O)N1S(=O)(=O)O [AZTREONAM, aztreonam] | > 64 | ≤ 0.06 | 0.125 (≈ 0.287 µM) | ≤ 0.06 | 32 (≈ 73.5 µM) | 64 (≈ 147 µM) | 0.125 (≈ 0.287 µM) | > 64 | 8 (≈ 18.4 µM) | – | – | – | – | – | – | – | – | – | – | – | – |
| NC(=O)OC[C@@H]1[C@H](NC(=O)/C(=N\OCC(=O)O)c2csc(N)n2)C(=O)N1S(=O)(=O)O [CARUMONAM, carumonam] | 4 (≈ 8.58 µM) | ≤ 0.06 | ≤ 0.06 | ≤ 0.06 | 0.125 (≈ 0.268 µM) | 0.25 (≈ 0.536 µM) | ≤ 0.06 | 0.125 (≈ 0.268 µM) | 4 (≈ 8.58 µM) | 4 | 0.25 (≈ 0.536 µM) | 2 (≈ 4.29 µM) | – | – | – | – | – | – | – | – | – |
| CC(C)(O/N=C(\C(=O)N[C@@H]1C(=O)N2C(C(=O)[O-])=C(C[n+]3ccccc3)CS[C@H]12)c1csc(N)n1)C(=O)O [CEFTAZIDIME, ceftazidime] | – | – | – | – | – | – | – | – | – | – | – | – | 65 (≈ 119 µM) | >64 | >64 | 16 (≈ 29.3 µM) | 0.5 (≈ 0.915 µM) | 4 (≈ 7.32 µM) | 8 (≈ 14.6 µM) | 1 (≈ 1.83 µM) | MIC [9, 21]: 16 µg/mL (≈ 29.3 µM) |
| CC1(C)[C@H](NC(=O)/C(=N\OCC(=O)O)c2csc(N)n2)C(=O)N1OCC(=O)O [Compound 1, (S,Z)-2-(1-(2-aminothiazol-4-yl)-2-(1-(carboxymethoxy)-2,2-dimethyl-4-oxoazetidin-3-ylamino)-2-oxoethylideneaminooxy)acetic acid] | 16 (≈ 38.5 µM) | 1 (≈ 2.41 µM) | 2 (≈ 4.81 µM) | 1 (≈ 2.41 µM) | 1 (≈ 2.41 µM) | 1 (≈ 2.41 µM) | 2 (≈ 4.81 µM) | 1 (≈ 2.41 µM) | 2 (≈ 4.81 µM) | 0.5 | 1 (≈ 2.41 µM) | 4 (≈ 9.63 µM) | – | – | – | – | – | – | – | – | Effect of class B or class D enzymes on potency ([12]; class B or class D β-lactamases): not affected; Effect of the majority of class A and class C enzymes on potency ([12]; majority of class A and class C β-lactamases): not affected; Effect of β-lactamases on potency, compared with the other β-lactams tested ([12]; whole panel, vs aztreonam, tigemonam, carumonam, ceftazidime): least affected; Effect of TEM-10 on activity ([1]; only enzyme in the panel with an effect, much less than on other monobactams or ceftazidime): some effect; Ratio of MIC vs vector alone [1]: 8; Ratio of MIC vs vector alone [2]: 0.5; Ratio of MIC vs vector alone [3]: 1; Ratio of MIC vs vector alone [4]: 0.5; Ratio of MIC vs vector alone [5]: 0.5; Ratio of MIC vs vector alone [10]: 0.5; Ratio of MIC vs vector alone [11]: 2; Ratio of MIC vs vector alone [7]: 1; Ratio of MIC vs vector alone [8]: 0.5; Ratio of MIC vs vector alone [9]: 1 |
| CC1(C)[C@H](NC(=O)/C(=N\OCC(=O)O)c2csc(N)n2)C(=O)N1OS(=O)(=O)O [TIGEMONAM, tigemonam] | – | – | – | – | – | – | – | – | – | 2 | – | – | >64 | 0.25 (≈ 0.572 µM) | 0.25 (≈ 0.572 µM) | 2 (≈ 4.57 µM) | 0.5 (≈ 1.14 µM) | 0.5 (≈ 1.14 µM) | 32 (≈ 73.2 µM) | 0.5 (≈ 1.14 µM) | Ratio of MIC vs vector alone [1]: 256; Ratio of MIC vs vector alone [2]: 2; Ratio of MIC vs vector alone [3]: 1; MIC ([3]; strain ECM6704, plasmid pUCP24, vector, MHB, 20 h at 35° C.): 0.25 µg/mL (≈ 0.572 µM); Ratio of MIC vs vector alone [4]: 1; Ratio of MIC vs vector alone [5]: 8; Ratio of MIC vs vector alone [10]: 2; Ratio of MIC vs vector alone [11]: 128; MIC ([7]; strain ECM6716, pUCP24::OXA-48, class D): 0.25 µg/mL (≈ 0.572 µM); Ratio of MIC vs vector alone [7]: 2; Ratio of MIC vs vector alone [8]: 2; Ratio of MIC vs vector alone [9]: 16; MIC [9, 21]: 4 µg/mL (≈ 9.14 µM) |
